According to PMC9520911, “New quinoline-based triazole hybrid analogs as effective inhibitors of α-amylase and α-glucosidase: Preparation, in vitro evaluation, and molecular docking along with in silico studies” (Frontiers in Chemistry, 2022):

How the values were obtained:
[1] = target: T1, Porcine pancreatic α-amylase (Sus scrofa, UniProt P00690); assay: α-amylase inhibition assay (starch / dinitrosalicylic acid); format: biochemical; conditions: for IC50: in vitro, mean ± SEM
T1 sequence (P00690 16-511): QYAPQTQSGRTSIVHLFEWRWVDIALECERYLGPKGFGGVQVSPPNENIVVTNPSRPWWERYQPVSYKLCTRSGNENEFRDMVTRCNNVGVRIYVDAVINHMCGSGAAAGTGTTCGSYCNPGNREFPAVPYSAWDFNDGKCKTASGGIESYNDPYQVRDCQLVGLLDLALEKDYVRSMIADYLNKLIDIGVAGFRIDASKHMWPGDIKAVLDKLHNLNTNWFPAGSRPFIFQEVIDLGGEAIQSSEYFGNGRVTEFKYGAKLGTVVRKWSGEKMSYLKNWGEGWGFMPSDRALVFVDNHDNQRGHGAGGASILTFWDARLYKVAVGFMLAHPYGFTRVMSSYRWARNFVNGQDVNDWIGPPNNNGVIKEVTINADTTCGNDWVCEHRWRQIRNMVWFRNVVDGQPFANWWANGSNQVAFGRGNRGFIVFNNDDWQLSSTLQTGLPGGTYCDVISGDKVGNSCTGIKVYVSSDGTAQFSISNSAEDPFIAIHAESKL
Description: After preincubation, 40 μL of a 1% starch solution in 0.02 M sodium phosphate buffer (pH 6.9 with 0.006 M sodium chloride) was added to each tube at 5 s intervals. […] The reaction was stopped with 100 μL of dinitro salicylic acid color reagent. The test tubes were then incubated in a boiling water bath for 5 min and cooled to room temperature. The reaction mixture was then diluted after adding 900 μL distilled water and the absorbance was measured at 540 nm.
Ac = the absorbance of the control
As = the absorbance of the sample

IC50 [1] | melting point | enhanced potency than standard acarbose drug (α-amylase) ([1]; relative to acarbose) | more potency than scaffold 7d (α-amylase) ([1]; relative to 7d) | Structure (SMILES)
40.2 ± 0.7 µM | 137 to 138 °C (dec.) | – | – | S=c1[nH]nc(-c2ccc3cccnc3c2)n1-c1ccccc1 [1d, 4-Phenyl-5-(quinolin-7-yl)-2,4-dihydro-3H-1,2,4-triazole-3-thione]
22.6 ± 0.6 µM | 139 to 140 °C | – | – | Cc1ccccc1-n1c(-c2ccc3cccnc3c2)n[nH]c1=S [2d, 5-(Quinolin-7-yl)-4-(o-tolyl)-2,4-dihydro-3H-1,2,4-triazole-3-thione]
32.3 ± 0.6 µM | 136 to 137 °C | – | – | Cc1cccc(-n2c(-c3ccc4cccnc4c3)n[nH]c2=S)c1 [3d, 5-(Quinolin-7-yl)-4-(m-tolyl)-2,4-dihydro-3H-1,2,4-triazole-3-thione]
21.6 ± 0.4 µM | 127 to 128 °C | – | – | Cc1ccc(-n2c(-c3ccc4cccnc4c3)n[nH]c2=S)cc1 [4d, 5-(Quinolin-7-yl)-4-(p-tolyl)-2,4-dihydro-3H-1,2,4-triazole-3-thione]
5.3 ± 0.2 µM | 139 to 140 °C | – | – | O=[N+]([O-])c1ccccc1-n1c(-c2ccc3cccnc3c2)n[nH]c1=S [5d, 4-(2-Nitrophenyl)-5-(quinolin-7-yl)-2,4-dihydro-3H-1,2,4-triazole-3-thione]
21.4 ± 0.3 µM | 130 to 131 °C | – | – | O=[N+]([O-])c1cccc(-n2c(-c3ccc4cccnc4c3)n[nH]c2=S)c1 [6d, 4-(3-Nitrophenyl)-5-(quinolin-7-yl)-2,4-dihydro-3H-1,2,4-triazole-3-thione]
11.6 ± 0.2 µM | 127 to 128 °C | – | – | O=[N+]([O-])c1ccc(-n2c(-c3ccc4cccnc4c3)n[nH]c2=S)cc1 [7d, 4-(4-Nitrophenyl)-5-(quinolin-7-yl)-2,4-dihydro-3H-1,2,4-triazole-3-thione]
– | 134 to 135 °C | – | – | COc1ccc(-n2c(-c3ccc4cccnc4c3)n[nH]c2=S)cc1 [8d, 4-(4-Methoxyphenyl)-5-(quinolin-7-yl)-2,4-dihydro-3H-1,2,4-triazole-3-thione]
1.5 ± 0.1 µM | 129 to 130 °C | – | – | Fc1ccccc1-n1c(-c2ccc3cccnc3c2)n[nH]c1=S [9d, 4-(2-Fluorophenyl)-5-(quinolin-7-yl)-2,4-dihydro-3H-1,2,4-triazole-3-thione]
2.1 ± 0.1 µM | 128 to 129 °C | – | – | Fc1cccc(-n2c(-c3ccc4cccnc4c3)n[nH]c2=S)c1 [10d, 4-(3-Fluorophenyl)-5-(quinolin-7-yl)-2,4-dihydro-3H-1,2,4-triazole-3-thione]
0.8 ± 0.05 µM | 131 to 132 °C | ten-fold | – | Fc1ccc(-n2c(-c3ccc4cccnc4c3)n[nH]c2=S)cc1 [11d, 4-(4-Fluorophenyl)-5-(quinolin-7-yl)-2,4-dihydro-3H-1,2,4-triazole-3-thione]
4.3 ± 0.1 µM | 136 to 137 °C | – | – | S=c1[nH]nc(-c2ccc3cccnc3c2)n1-c1ccccc1Cl [12d, 4-(2-Chlorophenyl)-5-(quinolin-7-yl)-2,4-dihydro-3H-1,2,4-triazole-3-thione]
14.6 ± 0.3 µM | 141 to 142 °C | – | – | S=c1[nH]nc(-c2ccc3cccnc3c2)n1-c1cccc(Cl)c1 [13d, 4-(3-Chlorophenyl)-5-(quinolin-7-yl)-2,4-dihydro-3H-1,2,4-triazole-3-thione]
6.4 ± 0.3 µM | 131 to 132 °C | – | 2 folds | S=c1[nH]nc(-c2ccc3cccnc3c2)n1-c1ccc(Cl)cc1 [14d, 4-(4-Chlorophenyl)-5-(quinolin-7-yl)-2,4-dihydro-3H-1,2,4-triazole-3-thione]
17.2 ± 0.3 µM | 135 to 136 °C | – | – | S=c1[nH]nc(-c2ccc3cccnc3c2)n1-c1ccccc1Br [15d, 4-(2-Bromophenyl)-5-(quinolin-7-yl)-2,4-dihydro-3H-1,2,4-triazole-3-thione]
31.8 ± 0.6 µM | 130 to 131 °C | – | – | S=c1[nH]nc(-c2ccc3cccnc3c2)n1-c1cccc(Br)c1 [16d, 4-(3-Bromophenyl)-5-(quinolin-7-yl)-2,4-dihydro-3H-1,2,4-triazole-3-thione]
19.2 ± 0.3 µM | 132 to 133 °C | – | – | S=c1[nH]nc(-c2ccc3cccnc3c2)n1-c1ccc(Br)cc1 [17d, 4-(4-Bromophenyl)-5-(quinolin-7-yl)-2,4-dihydro-3H-1,2,4-triazole-3-thione]
1.8 ± 0.1 µM | 133 to 134 °C | – | – | S=c1[nH]nc(-c2ccc3cccnc3c2)n1-c1ccc(Cl)c(Cl)c1 [18d, 4-(3,4-Dichlorophenyl)-5-(quinolin-7-yl)-2,4-dihydro-3H-1,2,4-triazole-3-thione]
18.5 ± 0.3 µM | – | – | – | S=c1[nH]nc(-c2ccc3cccnc3c2)n1-c1ccc(-c2ccccc2)cc1 [19d]
